In ChEMBL document CHEMBL3797123, “Amino(oxo)acetate moiety: A new functional group to improve the cytotoxicity of betulin derived carbamates” (Bioorg Med Chem Lett, 2016) one finds EC50 data, which are given here for ten compounds.

Type in all cases: functional, cell-based
One experiment relates to A2780. Put plainly: Cytotoxicity against human A2780 cells after 96 hrs by SRB assay. Particulars: A2780, 96 h. For orientation: In SRB staining, fixed cells bind dye roughly in proportion to their protein.
Another experiment relates to HeLa. Nature of the experiment: Cytotoxicity against human HeLa cells after 96 hrs by SRB assay.
For another experiment, the system named is A549. Put plainly: Cytotoxicity against human A549 cells after 96 hrs by SRB assay. The conditions noted are these: A549, 96 h.
In the next experiment the test system is HT-29. Nature of the experiment: Cytotoxicity against human HT-29 cells after 96 hrs by SRB assay. The conditions noted are these: HT-29, 96 h.
The nature of experiment [1]: Cytotoxicity against human 518A2 cells after 96 hrs by SRB assay. Particulars: 518A2, 96 h.
The next experiment concerns MCF7. Put plainly: Cytotoxicity against human MCF7 cells after 96 hrs by SRB assay. Particulars: MCF7, 96 h.

Where only a bound is given, the exact number is not on record here.

One may read the EC50 as the concentration needed to bring the measured effect to its halfway point. Lower therefore signals a more potent agent. As for `C=C(C)[C@@H]1CC[C@]2(COC(C)=O)CC[C@]3(C)[C@H](CC[C@@H]4[C@@]5(C)CC[C@H](OC(C)=O)C(C)(C)[C@@H]5CC[C@]43C)[C@@H]12` [BETULIN DIACETATE], the EC50 in the experiment with A2780 is 20.3 µM; in the experiment on HeLa, greater than 30 µM; with A549 it was 21.5 µM; in the experiment with HT-29, 25.7 µM.
As to `C=C(C)[C@@H]1CC[C@]2(CO)CC[C@]3(C)[C@H](CC[C@@H]4[C@@]5(C)CC[C@H](O)C(C)(C)[C@@H]5CC[C@]43C)[C@@H]12` [BETULIN], the EC50 with HeLa and in the experiment with HT-29 was greater than 30 µM each time.
`C=C(C)[C@@H]1CC[C@]2(COC(=O)Nc3ccccc3)CC[C@]3(C)[C@H](CC[C@@H]4[C@@]5(C)CC[C@H](OC(=O)C(N)=O)C(C)(C)[C@@H]5CC[C@]43C)[C@@H]12`: the EC50 in the experiment with A2780 stood at 17.3 µM; in experiment [1], 15.3 µM; in the experiment with HeLa it was 10.5 µM; with A549, 20.4 µM; in the experiment with MCF7 it was 17.6 µM; with HT-29, 21.4 µM.
Turning to `C=C(C)[C@@H]1CC[C@]2(COC(=O)NCCCCCC)CC[C@]3(C)[C@H](CC[C@@H]4[C@@]5(C)CC[C@H](OC(=O)C(N)=O)C(C)(C)[C@@H]5CC[C@]43C)[C@@H]12`, the EC50 in the experiment with A2780 came to 2 µM; in experiment [1], 6.5 µM; with HeLa, 10.1 µM; in the experiment with A549, 7.4 µM; with MCF7 it was 5.6 µM; in the experiment on HT-29, 7.3 µM.
On to `C=C(C)[C@@H]1CC[C@]2(COC(=O)NCCCCCC)CC[C@]3(C)[C@H](CC[C@@H]4[C@@]5(C)CC[C@H](O)C(C)(C)[C@@H]5CC[C@]43C)[C@@H]12`, for which the half-maximal effective concentration (EC50) with A2780 turned out to be 7.6 µM; in experiment [1], 5.6 µM.
As for `C=C(C)[C@@H]1CC[C@]2(CO)CC[C@]3(C)[C@H](CC[C@@H]4[C@@]5(C)CC[C@H](OC(C)=O)C(C)(C)[C@@H]5CC[C@]43C)[C@@H]12`, the EC50 was 28.5 µM in the experiment with A2780; greater than 30 µM in experiment [1]; greater than 30 µM with HeLa; greater than 30 µM in the experiment with A549; 20.2 µM with MCF7; greater than 30 µM in the experiment with HT-29.
With `C=C(C)[C@@H]1CC[C@]2(COC(=O)NCCCC)CC[C@]3(C)[C@H](CC[C@@H]4[C@@]5(C)CC[C@H](OC(=O)C(N)=O)C(C)(C)[C@@H]5CC[C@]43C)[C@@H]12`, the EC50 in the experiment with A2780 worked out at 6.4 µM; in experiment [1] it was 7.9 µM; in the experiment with HeLa, 11.2 µM; in the experiment on A549, 9.1 µM; in the experiment with MCF7, 10 µM; in the experiment with HT-29, 10.1 µM.
Turning to `C=C(C)[C@@H]1CC[C@]2(COC(=O)NCC)CC[C@]3(C)[C@H](CC[C@@H]4[C@@]5(C)CC[C@H](OC(=O)C(N)=O)C(C)(C)[C@@H]5CC[C@]43C)[C@@H]12`, the EC50 with A2780 stood at 10 µM; in experiment [1] it was 11.4 µM; in the experiment with HeLa it was 14.1 µM; in the experiment on A549, 13.7 µM; with MCF7 it was 11.2 µM; in the experiment with HT-29 it was 15.3 µM.
Consider `C=C(C)[C@@H]1CC[C@]2(COC(=O)NCCC)CC[C@]3(C)[C@H](CC[C@@H]4[C@@]5(C)CC[C@H](OC(=O)C(N)=O)C(C)(C)[C@@H]5CC[C@]43C)[C@@H]12`, for which the EC50 with A2780 is 7 µM; in experiment [1], 9.9 µM; with HeLa, 12.8 µM; in the experiment on A549 it was 10.5 µM; with MCF7 it was 12.5 µM; in the experiment with HT-29, 12.8 µM.
Consider `C=C(C)[C@@H]1CC[C@]2(C(=O)O)CC[C@]3(C)[C@H](CC[C@@H]4[C@@]5(C)CC[C@H](O)C(C)(C)[C@@H]5CC[C@]43C)[C@@H]12` [BETULINIC ACID], for which the EC50 in the experiment on HeLa was 8.8 µM. In other words, the single-digit micromolar range.
